The values below come from patent US9321718B2 (CHROMA THERAPEUTICS LTD., priority 2010, dated 2016).

Where only a bound is given, the exact number is not on record here.

For the experiment, the target named is T1, human recombinant his-tagged HSP90α (Homo sapiens, UniProt P07900).
T1 construct: purchased Prospec Technogene #HSP90
The experiment can be described thus: HSP90 enzyme assay (HTRF, competition with biotinylated Geldanamycin). The format is binding. As to conditions: IC50 range; read-out: Enzyme Assay. The source says:
An HTRF (homogeneous time resolved fluorescence) assay is used to measure the interaction of the compounds with HSP90. The assay measures binding of biotinylated Geldanamycin (bio-GM; Biomol, #EI-341, lot: A9199a) to human recombinant his-tagged HSP90α (HSP90; Prospec Technogene, #HSP90, lot: 260HSP9001). A signal is generated by fluorescence resonance energy transfer from an Europium-cryptate labeled anti-his antibody (anti-his-K; Cisbio International, #61HISKLA, lot: 33V) via the HSP90-GM-biotin complex to a fluorescence acceptor (allophycocyanin) linked to streptavidin (SA-XL; Cisbio International, #610SAXLB, lot: 089).
Unlabeled GM or compounds compete with the bio-GM for binding to HSP90 resulting in reduced fluorescence energy transfer/assay signal.
A preformed (1 hour incubation) complex of HSP90 with the anti-his-K is added to the compound solution in a 384 well microplate (Corning, #3710) and incubated for 15 minutes. A preformed (1 hour incubation) complex of bio-GM with the SA-XL is added to the wells and incubated for 20 hours. All incubations are performed at room temperature. The final assay volume is 50 μl/well. The final concentrations in the assay are: 50 mM Hepes pH 7.3, 50 mM NaCl, 100 mM KF, 1 mM EDTA, 1 mM DTT, 0.1% Triton-X-100, […] HSP90, 40 nM SA-XL, 40 nM bio-GM. Test compounds are dissolved in DMSO, prediluted in assay buffer and tested at a final concentration between 5000 nM and 0.3 nM. The resulting DMSO concentration is 0.5% and included in all controls. High controls are without test compounds, low controls without test compounds, without HSP90 and without bio-GM. As a reference inhibitor unlabeled GM is used in the same concentrations as the test compounds.
Inhibition is calculated compared to the assay controls using an Excel spreadsheet (Microsoft). IC50 values are calculated by non-linear least squares fitting to the standard dose-response model using GraphPad Prism (GraphPad Software Inc).
A general note: In TR-FRET formats the signal depends on donor and acceptor labels being close together.
For `CC(C)c1cc(C(=O)N2CCC(N[C@H](C(=O)OC(C)(C)C)C3CCCCC3)CC2)c(O)cc1O` [Example 15, tert-butyl (2S)-cyclohexyl[(1-{[2,4-dihydroxy-5-(propan-2-yl)phenyl]carbonyl}piperidin-4-yl)amino]ethanoate], the IC50 was 100 to 1000 nM. For `CC(C)c1cc(C(=O)N2CCC(CN[C@H](C(=O)OC(C)(C)C)C3CCCCC3)CC2)c(O)cc1O` [Example 31, tert-butyl (2S)-cyclohexyl{[(1-{[2,4-dihydroxy-5-(propan-2-yl)phenyl]carbonyl}piperidin-4-yl)methyl]amino}ethanoate], the IC50 lay within 100 to 1000 nM. Regarding `CC(C)c1cc(C(=O)N2CCC(CCN[C@@H](Cc3ccccc3)C(=O)OC(C)(C)C)CC2)c(O)cc1O` [Example 41, tert-butyl N-[2-(1-{[2,4-dihydroxy-5-(propan-2-yl)phenyl]carbonyl}piperidin-4-yl)ethyl]-L-phenylalaninate], the IC50 was less than 100 nM. The same measure for `CC(C)c1cc(C(=O)N2CCC(CCN[C@@H](C)C(=O)OC(C)(C)C)CC2)c(O)cc1O` [Example 43, tert-butyl N-[2-(1-{[2,4-dihydroxy-5-(propan-2-yl)phenyl]carbonyl}piperidin-4-yl)ethyl]-L-alaninate]: less than 100 nM; for `CC(C)c1cc(C(=O)N2CCC(CCN[C@H](C(=O)OC(C)(C)C)C3CCCCC3)CC2)c(O)cc1O` [Example 49, tert-butyl (2S)-cyclohexyl{[2-(1-{[2,4-dihydroxy-5-(propan-2-yl)phenyl]carbonyl}piperidin-4-yl)ethyl]amino}ethanoate]: less than 100 nM. The same measure for `CC(C)c1cc(C(=O)N2CCC(CCN[C@H](C(=O)OC(C)(C)C)c3ccccc3)CC2)c(O)cc1O` [Example 50, tert-butyl (2S)-{[2-(1-{[2,4-dihydroxy-5-(propan-2-yl)phenyl]carbonyl}piperidin-4-yl)ethyl]amino}(phenyl)ethanoate]: less than 100 nM; for `CC(C)c1cc(C(=O)N2CCC(CCN[C@@H](COC(C)(C)C)C(=O)OC(C)(C)C)CC2)c(O)cc1O` [Example 53, tert-butyl O-tert-butyl-N-[2-(1-{[2,4-dihydroxy-5-(propan-2-yl)phenyl]carbonyl}piperidin-4-yl)ethyl]-L-serinate]: less than 100 nM.

Regarding `CCOC(=O)[C@H](C)NCc1ccc2c(c1)CN(C(=O)c1cc(C(C)C)c(O)cc1O)C2` [Example 57, ethyl N-[(2-{[2,4-dihydroxy-5-(propan-2-yl)phenyl]carbonyl}-2,3-dihydro-1H-isoindol-5-yl)methyl]-L-alaninate], the IC50 was less than 100 nM. The same measure for `CC(C)OC(=O)[C@H](C)NCc1ccc2c(c1)CN(C(=O)c1cc(C(C)C)c(O)cc1O)C2` [Example 58, propan-2-yl N-[(2-{[2,4-dihydroxy-5-(propan-2-yl)phenyl]carbonyl}-2,3-dihydro-1H-isoindol-5-yl)methyl]-L-alaninate]: less than 100 nM; for `CC(C)C[C@H](NCc1ccc(CN(C)C(=O)c2cc(C(C)C)c(O)cc2O)cc1)C(=O)O` [Example 77, N-(4-{[{[2,4-dihydroxy-5-(propan-2-yl)phenyl]carbonyl}(methyl)amino]methyl}benzyl)-L-leucine]: less than 100 nM. The same measure for `CC(C)C[C@H](NCc1ccc2c(c1)CN(C(=O)c1cc(C(C)C)c(O)cc1O)C2)C(=O)O` [Example 78, N-[(2-{[2,4-dihydroxy-5-(propan-2-yl)phenyl]carbonyl}-2,3-dihydro-1H-isoindol-5-yl)methyl]-L-leucine]: less than 100 nM. The same measure for `CC(C)c1cc(C(=O)N2Cc3ccc(CNC(C)(C)C(=O)O)cc3C2)c(O)cc1O` [Example 79, N-[(2-{[2,4-dihydroxy-5-(propan-2-yl)phenyl]carbonyl}-2,3-dihydro-1H-isoindol-5-yl)methyl]-2-methylalanine]: less than 100 nM. On to `CC(C)C[C@H](NCCCc1ccc2c(c1)CN(C(=O)c1cc(C(C)C)c(O)cc1O)C2)C(=O)O` [Example 80, N-[3-(2-{[2,4-dihydroxy-5-(propan-2-yl)phenyl]carbonyl}-2,3-dihydro-1H-isoindol-5-yl)propyl]-L-leucine], for which the IC50 is less than 100 nM.

As for `CC(C)C[C@H](NCCc1ccc2c(c1)CN(C(=O)c1cc(C(C)C)c(O)cc1O)C2)C(=O)O` [Example 81, N-[2-(2-{[2,4-dihydroxy-5-(propan-2-yl)phenyl]carbonyl}-2,3-dihydro-1H-isoindol-5-yl)ethyl]-L-leucine], the IC50 was less than 100 nM.

For `CC(C)c1cc(C(=O)N2Cc3ccc(CN[C@@H](C)C(=O)O)cc3C2)c(O)cc1O` [Example 82, N-[(2-{[2,4-dihydroxy-5-(propan-2-yl)phenyl]carbonyl}-2,3-dihydro-4H-isoindol-5-yl)methyl]-L-alanine], the IC50 was less than 100 nM. The same measure for `CC(C)c1cc(C(=O)N2Cc3ccc(CNC4(C(=O)O)CCCC4)cc3C2)c(O)cc1O` [Example 83, 1-{[(2-{[2,4-dihydroxy-5-(propan-2-yl)phenyl]carbonyl}-2,3-dihydro-1H-isoindol-5-yl)methyl]amino}cyclopentanecarboxylic acid]: less than 100 nM. As to `CC(C)C[C@H](NCc1cccc(CN(C)C(=O)c2cc(C(C)C)c(O)cc2O)c1)C(=O)O` [Example 84, N-(3-{[{[2,4-dihydroxy-5-(propan-2-yl)phenyl]carbonyl}(methyl)amino]methyl}benzyl)-L-leucine], the IC50 is less than 100 nM. For `CC(C)c1cc(C(=O)N(C)Cc2ccc(CN[C@H](C(=O)O)c3ccccc3)cc2)c(O)cc1O` [Example 85, (2S)-[(4-{[{[2,4-dihydroxy-5-(propan-2-yl)phenyl]carbonyl}(methyl)amino]methyl}benzyl)amino](phenyl)ethanoic acid], the IC50 is less than 100 nM. The same measure for `CC(C)c1cc(C(=O)N(C)Cc2ccc(CNC(C)(C)C(=O)O)cc2)c(O)cc1O` [Example 86, N-(4-{[{[2,4-dihydroxy-5-(propan-2-yl)phenyl]carbonyl}(methyl)amino]methyl}benzyl)-2-methylalanine]: less than 100 nM; for `CC(C)c1cc(C(=O)N(C)Cc2cccc(CNC(C)(C)C(=O)O)c2)c(O)cc1O` [Example 87, N-(3-{[{[2,4-dihydroxy-5-(propan-2-yl)phenyl]carbonyl}(methyl)amino]methyl}benzyl)-2-methylalanine]: less than 100 nM. With `CC(C)c1cc(C(=O)N(C)Cc2cccc(CNC3(C(=O)O)CCCC3)c2)c(O)cc1O` [Example 88, 1-[(3-{[{[2,4-dihydroxy-5-(propan-2-yl)phenyl]carbonyl}(methyl)amino]methyl}benzyl)amino]cyclopentanecarboxylic acid], the IC50 was less than 100 nM. The same measure for `CC(C)c1cc(C(=O)N(C)Cc2cccc(CN[C@H](C(=O)O)c3ccccc3)c2)c(O)cc1O` [Example 89, (2S)-[(3-{[{[2,4-dihydroxy-5-(propan-2-yl)phenyl]carbonyl}(methyl)amino]methyl}benzyl)amino](phenyl)ethanoic acid]: less than 100 nM; for `CC(C)c1cc(C(=O)N2Cc3ccc(CCCNC4(C(=O)O)CCCC4)cc3C2)c(O)cc1O` [Example 90, 1-{[3-(2-{[2,4-dihydroxy-5-(propan-2-yl)phenyl]carbonyl}-2,3-dihydro-1H-isoindol-5-yl)propyl]amino}cyclopentanecarboxylic acid]: less than 100 nM; for `CC(C)c1cc(C(=O)N(C)Cc2ccc(CCNC(C)(C)C(=O)O)cc2)c(O)cc1O` [Example 91, N-[2-(4-{[{[2,4-dihydroxy-5-(propan-2-yl)phenyl]carbonyl}(methyl)amino]methyl}phenyl)ethyl]-2-methylalanine]: less than 100 nM. The same measure for `CC(C)c1cc(C(=O)N2CCC(CCN[C@@H](C)C(=O)O)CC2)c(O)cc1O` [Example 92, N-[2-(1-{[2,4-dihydroxy-5-(propan-2-yl)phenyl]carbonyl}piperidin-4-yl)ethyl]-L-alanine]: less than 100 nM; for `CC(C)c1cc(C(=O)N2Cc3ccc(CCNC4(C(=O)O)CCCC4)cc3C2)c(O)cc1O` [Example 93, 1-{[2-(2-{[2,4-dihydroxy-5-(propan-2-yl)phenyl]carbonyl}-2,3-dihydro-1H-isoindol-5-yl)ethyl]amino}cyclopentanecarboxylic acid]: less than 100 nM. The same measure for `CC(C)C[C@H](NC[C@@H]1CCCN1C(=O)c1cc(C(C)C)c(O)cc1O)C(=O)O` [Example 94, N-{[(2S)-1-{[2,4-dihydroxy-5-(propan-2-yl)phenyl]carbonyl}pyrrolidin-2-yl]methyl}-L-leucine]: 100 to 1000 nM; for `CC(C)C[C@H](NC1CCN(C(=O)c2cc(C(C)C)c(O)cc2O)C1)C(=O)O` (stereo partly drawn) [Example 95, N-(1-{[2,4-dihydroxy-5-(propan-2-yl)phenyl]carbonyl}pyrrolidin-3-yl)-L-leucine]: less than 100 nM.
